Experimental data published in patent publication US20080268483A1, “Methods for a Global Assay of Coagulation and Fibrinolysis” (The Regents of the University of Colorado, priority 2004, published 2008).

Columns and labels:
[1] = system: standard normal pooled plasma; assay: CloFAL assay, altered fibrinolysis studies in treated standard normal pooled plasma; type: biochemical, human; conditions: TAFIa inhibition by PTCI, final plasma concentration 50 μg/mL
Experimental: Frozen plasma aliquots were thawed in a 37° C. water bath for three minutes. […] Plasma samples (fresh or freeze-thawed) were maintained for up to 30 minutes in an ice-water bath until time of assay. […]
The kinetic absorbance data was exported to Microsoft Excel and absorbance measurements at each time point were averaged for the triplicate runs of each specimen. Using the averaged absorbance for the specimen, the maximum amplitude of rise in absorbance was determined (MA=maximum absorbance minus baseline absorbance, where baseline absorbance was obtained by averaging the third through eighth kinetic readings). […]

[2] = system: standard normal pooled plasma; assay: CloFAL assay, heparin studies and heparinase reversal; type: biochemical, human
From the text: The assay described here was modified from those of He et al. (1999) and Smith et al. (2003). As compared to that by Smith et al., which evaluates only fibrinolysis, the CloFAL assay permits assessment of coagulability as well. Furthermore, when compared to the global assay of He et al., the CloFAL assay permits testing with a single reagent to evaluate both coagulation and fibrinolysis, rather than requiring (as does that of He et al.) the preparation of two distinct reagents for separate evaluation of the plasma sample. […] Frozen plasma aliquots were thawed in a 37° C. water bath for three minutes. […]
For each patient sample to be analyzed, 75 μL of freeze-thawed or fresh plasma was dispensed into each of three wells in a round-bottom, 96-well, Nunc assay plate (Fisher Scientific, Santa Clara, Calif.), and then pre-warmed at 37° C. for three minutes. […] The plate was then immediately placed in an eight-channel microplate spectrophotometer (PowerWave HT, Bio-Tek Instruments, Winooski, Vt.) for dual kinetic absorbance measurements at 405 nm and 630 nm at 45-second intervals for 3 hours, following an initial five-second mixing step prior to the first reading. The spectrophotometer interfaced with a computer such that all its operations, including continuous analysis of delta-absorbance (405 nm minus 630 nm) data using KC4™ PC software, may be automated. […]

rise in absorbance of the CloFAL curve ([2]; heparin at 2 U/mL in standard normal pooled plasma) | rise in absorbance of the CloFAL curve ([2]; heparin concentrations of as little as 0.1 U/mL) | Substance | FI (fibrinolytic index) [1] | duration of the first phase of decline in turbidity in the CloFAL curve [1]
 |  | PTCI: potato tuber carboxypeptidase inhibitor (Sigma-Aldrich), blocks TAFI activation to enhance fibrinolysis (QQHADPICNKPCKTHDDCSGAWFCQACWNSARTCGPYVG; UniProt P01075 1-39, looked up) | increased | prolonged
greatly prevented | prolongation and attenuation | heparin |  | 
